Assay results reported in ChEMBL document CHEMBL4706519, “Evaluation of N-phenyl-2-aminothiazoles for treatment of multi-drug resistant and intracellular Staphylococcus aureus infections” (Eur J Med Chem, 2020).
Values after ≈ are worked out from the molar mass of the structure shown.

Experiments:
in vitro = conditions: human, liver microsomes
Streptococcus pneumoniae [1] = assay: Antibacterial activity against methicillin-resistant Streptococcus pneumoniae ATCC 700677 assessed as inhibition of bacterial growth measured after 18 to 20 hrs by CLSI protocol based broth microdilution method; assay type: functional; conditions: time 18-20 hrs
Enterococcus faecalis [2] = assay: Ratio of MBC to MIC for vancomycin-resistant Enterococcus faecalis ATCC 51299 assessed as inhibition of bacterial growth measured after 18 to 20 hrs by CLSI protocol based broth microdilution method; assay type: functional; conditions: time 18-20 hrs
Streptococcus pneumoniae [3] = assay: Antibacterial activity against cephalosporin-resistant Streptococcus pneumoniae ATCC 51916 assessed as inhibition of bacterial growth measured after 18 to 20 hrs by CLSI protocol based broth microdilution method; assay type: functional; conditions: time 18-20 hrs
[4] = Selectivity index, ratio of maximum non-toxic concentration for human Caco-2 cells to MIC for methicillin-resistant Staphylococcus aureus USA700 NRS386; assay type: toxicity
Staphylococcus aureus [5] = assay: Antibacterial activity against methicillin-resistant Staphylococcus aureus USA400 NRS123 infected in mouse J774 cells assessed as log reduction in intracellular bacterial burden at 4 x MIC measured after 24 hrs; assay type: functional
Streptococcus pneumoniae [6] = assay: Ratio of MBC to MIC for cephalosporin-resistant Streptococcus pneumoniae ATCC 51916 assessed as inhibition of bacterial growth measured after 18 to 20 hrs by CLSI protocol based broth microdilution method; assay type: functional; conditions: time 18-20 hrs
[7] = Selectivity index, ratio of maximum non-toxic concentration for human Caco-2 cells to MIC for methicillin-resistant Staphylococcus aureus USA500 NRS385; assay type: toxicity
[8] = Selectivity index, ratio of maximum non-toxic concentration for human Caco-2 cells to MIC for methicillin-resistant Staphylococcus aureus USA300 NRS384; assay type: toxicity
Staphylococcus aureus [9] = assay: Bactericidal activity against methicillin-resistant Staphylococcus aureus USA400 NRS123 assessed as log reduction in viable bacteria count at 5 times MIC incubated for 2 hrs in soy broth followed by incubation for 18 to 20 hrs on agar plate by time kill assay; assay type: functional; conditions: time 20-22 hrs
physchem = conditions: phosphate-buffered saline, pH 7.4
Staphylococcus aureus [10] = assay: Antibacterial activity against methicillin-resistant Staphylococcus aureus USA400 NRS123 infected in mouse J774 cells assessed as reduction in intracellular bacterial burden at 2 x MIC measured after 24 hrs relative to control; assay type: functional
Staphylococcus aureus [11] = assay: Ratio of MIC for methicillin-resistant Staphylococcus aureus USA400 NRS123 measured after 13th passage to MIC for methicillin-resistant Staphylococcus aureus USA400 NRS123 measured after 18 to 20 hrs by broth microdilution assay; assay type: functional
Staphylococcus aureus [12] = assay: Ratio of MBC to MIC against methicillin-sensitive Staphylococcus aureus NRS107 assessed as inhibition of bacterial growth measured after 18 to 20 hrs by CLSI protocol based broth microdilution method; assay type: functional; conditions: time 18-20 hrs
Escherichia coli [13] = assay: Antibacterial activity against Escherichia coli JW55031 harboring toIC efflux mutant assessed as inhibition of bacterial growth measured after 18 to 20 hrs by broth microdilution method; assay type: functional; conditions: time 18-20 hrs
Staphylococcus aureus [14] = assay: Antibacterial activity against vancomycin-resistant Staphylococcus aureus 10 assessed as inhibition of bacterial growth measured after 18 to 20 hrs by CLSI protocol based broth microdilution method; assay type: functional; conditions: time 18-20 hrs
Staphylococcus aureus [15] = assay: Ratio of MBC to MIC against methicillin-sensitive Staphylococcus aureus ATCC 6538 assessed as inhibition of bacterial growth measured after 18 to 20 hrs by CLSI broth microdilution method; assay type: functional; conditions: time 18-20 hrs
Escherichia coli [16] = assay: Antibacterial activity against wild type Escherichia coli BW25113 assessed as inhibition of bacterial growth measured after 18 to 20 hrs by broth microdilution method; assay type: functional; conditions: time 18-20 hrs
Enterococcus faecalis [17] = assay: microbe, parasite or virus in culture; conditions: ATCC 51299
Staphylococcus aureus [18] = assay: Bactericidal activity against methicillin-resistant Staphylococcus aureus USA400 NRS123 assessed as post-antibiotic effect at 5 times MIC incubated for 2 hrs followed by compound wash-out by viable plate count method; assay type: functional
[19] = Intrinsic clearance in human liver microsomes at 0.1 uM in absence of NADPH measured upto 60 mins by LC/MS/MS analysis; assay type: ADME, Microsome; conditions: read-out: CLH
[20] = test system: Staphylococcus epidermidis; assay: Ratio of MBC to MIC for methicillin-resistant Staphylococcus epidermidis NRS101 assessed as inhibition of bacterial growth measured after 18 to 20 hrs by CLSI protocol based broth microdilution method; assay type: functional; conditions: time 18-20 hrs
Listeria monocytogenes [21] = assay: Ratio of MBC to MIC for Listeria monocytogenes ATCC 19111 assessed as inhibition of bacterial growth measured after 18 to 20 hrs by CLSI protocol based broth microdilution method; assay type: functional; conditions: time 18-20 hrs
[22] = Selectivity index, ratio of maximum non-toxic concentration for human Caco-2 cells to MIC for methicillin-resistant Staphylococcus aureus NRS119; assay type: toxicity
Listeria monocytogenes [23] = assay: Antibacterial activity against Listeria monocytogenes ATCC 19111 assessed as inhibition of bacterial growth measured after 18 to 20 hrs by CLSI protocol based broth microdilution method; assay type: functional; conditions: time 18-20 hrs
Staphylococcus aureus [24] = assay: microbe, parasite or virus in culture; conditions: USA500 NRS385
J774 = assay: Cytotoxicity against mouse J774 cells assessed as cell viability at 32 ug/ml incubated for 2 hrs by MTS assay; assay type: cell-based; conditions: j774, 2 h, dose 32 µg/ml
Staphylococcus aureus [25] = assay: Antibacterial activity against vancomycin-resistant Staphylococcus aureus 12 assessed as inhibition of bacterial growth measured after 18 to 20 hrs by CLSI protocol based broth microdilution method; assay type: functional; conditions: time 18-20 hrs
Streptococcus pneumoniae [26] = assay: Ratio of MBC to MIC for methicillin-resistant Streptococcus pneumoniae ATCC 700677 assessed as inhibition of bacterial growth measured after 18 to 20 hrs by CLSI protocol based broth microdilution method; assay type: functional; conditions: time 18-20 hrs
[27] = Half life in human liver microsomes at 0.1 uM in absence of NADPH by LC/MS/MS analysis; assay type: ADME, Microsome
Staphylococcus aureus [28] = assay: microbe, parasite or virus in culture; conditions: NRS119
Staphylococcus aureus [29] = assay: Antibacterial activity against methicillin-resistant Staphylococcus aureus USA300 NRS384 assessed as inhibition of bacterial growth measured after 18 to 20 hrs by broth microdilution method; assay type: functional; conditions: time 18-20 hrs
Staphylococcus aureus [30] = assay: microbe, parasite or virus in culture; conditions: NRS107
Staphylococcus aureus [31] = assay: Bactericidal activity against methicillin-resistant Staphylococcus aureus USA400 NRS123 assessed as eradication of bacterial count at 5 times MIC incubated for 8 hrs in soy broth followed by incubation for 18 to 20 hrs on agar plate by time kill assay; assay type: functional; conditions: time 26-28 hrs
[32] = Cytotoxicity against human Caco-2 cells assessed as cell viability at 64 ug/ml incubated for 2 hrs by MTS assay relative to control; assay type: cell-based; conditions: at 64 µg/mL, read-out: Activity

## C/C(=N\NC(=N)N)c1ccc(Nc2nc(-c3ccc(C)cc3)cs2)cc1
In vitro
  microsomal CLint at 1 h, 0.1 µM: 58.9 µL/min/mg
Streptococcus pneumoniae [1]
  MBC: 8 µg/mL (≈ 21.9 µM)
  MIC: 2 µg/mL (≈ 5.49 µM)
Enterococcus faecalis [2]
  Ratio: 1
Streptococcus pneumoniae [3]
  MBC: 4 µg/mL (≈ 11 µM)
  MIC: 2 µg/mL (≈ 5.49 µM)
[4]
  selectivity ratio: 16
Staphylococcus aureus [5]
  Activity: 2.49 log10CFU/ml
Streptococcus pneumoniae [6]
  Ratio: 1
[7]
  selectivity ratio: 16
[8]
  selectivity ratio: 16
Staphylococcus aureus [9]
  Activity: 3 log10CFU/ml
physchem
  solubility kinetic at 2 h: 26.7 µM (≈ 9.73 µg/mL)
Staphylococcus aureus [10]
  inhibition (INH): 93%
Staphylococcus aureus [11]
  Ratio: 1
Staphylococcus aureus [12]
  Ratio: 1
Escherichia coli [13]
  MIC: 4 µg/mL (≈ 11 µM)
Staphylococcus aureus [14]
  MBC: 2 µg/mL (≈ 5.49 µM)
  MIC: 2 µg/mL (≈ 5.49 µM)
Staphylococcus aureus [15]
  Ratio: 1
Escherichia coli [16]
  MIC: 16 µg/mL (≈ 43.9 µM)
Enterococcus faecalis [17]
  MBC: 4 µg/mL (≈ 11 µM)
  MIC: 2 µg/mL (≈ 5.49 µM)
Staphylococcus aureus [18]
  PAE: 6 h
[19]
  microsomal CLint at 0.1 µM: 27.3 µL/min/mg
[20]
  Ratio: 1
Listeria monocytogenes [21]
  Ratio: 1
[22]
  selectivity ratio: 16
Listeria monocytogenes [23]
  MBC: 2 µg/mL (≈ 5.49 µM)
  MIC: 1 µg/mL (≈ 2.74 µM)
Staphylococcus aureus [24]
  MBC: 2 µg/mL (≈ 5.49 µM)
  MIC: 2 µg/mL (≈ 5.49 µM)
J774
  Activity: Non-Toxic
Staphylococcus aureus [25]
  MBC: 2 µg/mL (≈ 5.49 µM)
  MIC: 2 µg/mL (≈ 5.49 µM)
Streptococcus pneumoniae [26]
  Ratio: 1
[27]
  half-life at 0.1 µM: 4.23 h
Staphylococcus aureus [28]
  MBC: 4 µg/mL (≈ 11 µM)
  MIC: 2 µg/mL (≈ 5.49 µM)
Staphylococcus aureus [29]
  MIC: 2 µg/mL (≈ 5.49 µM)
Staphylococcus aureus [30]
  MBC: 2 µg/mL (≈ 5.49 µM)
  MIC: 2 µg/mL (≈ 5.49 µM)
Staphylococcus aureus [31]
  Activity: 100%
[32]
  viability at 2 h, 64 ug/ml: 100%
